Test results published in patent publication US12091385B2, “Pyridinylcyanoguanidine derivative and use thereof” (Rushi Biotech (Hangzhou) Co., Ltd, priority 2021, dated 2024).

How the values were obtained:
Type in all cases: cell-based
[1] = system: Human gastric cancer cell MKN45; assay: CCK-8 cell proliferation assay, MKN45; details: MKN-45 cells, 72 hrs with drug, CCK-8, OD 450 nm
Protocol: (§1) The effect of samples on the proliferation of human tumor cells in vitro was determined by CCK-8 cell proliferation assay.
(§2) The cells were assayed through a method including the following steps: • 1) The cells were digested, counted, and prepared into a cell suspension in a corresponding culture medium (Table 1) (5×10^4 cells/ml for CFPAC-1 and RPMI 8226, and 3.5×10^4 cells/ml for rest cells). The cell suspension was added to each well of a 96-well plate in 100 μl/well. • 2) Then the 96-well plate was incubated for 24 hrs in an incubator at 37° C. and 5% CO2. • 3) The drug was diluted with the culture medium to the required working concentration. 100 μl of the corresponding drug containing medium was added to each well.

[2] = system: Human colon cancer cell HCT-116; assay: CCK-8 cell proliferation assay, HCT-116; details: HCT116 cells, 72 hrs with drug, CCK-8, OD 450 nm
Protocol: as §1, §2

[3] = system: Human lung adenocarcinoma cell A549; assay: CCK-8 cell proliferation assay, A549; details: A549 cells, 72 hrs with drug, CCK-8, OD 450 nm
Protocol: as §1, §2

[4] = system: Human esophageal cancer cell TE-1; assay: CCK-8 cell proliferation assay, TE-1; details: TE-1 cells, 72 hrs with drug, CCK-8, OD 450 nm
Protocol: as §1, §2

[5] = system: Human multiple myeloma cell RPMI 8226; assay: CCK-8 cell proliferation assay, RPMI 8226; details: RPMI8226 cells, 72 hrs with drug, CCK-8, OD 450 nm
Protocol: as §1, §2

[6] = system: Human hepatoma cell HepG2; assay: CCK-8 cell proliferation assay, HepG2; details: HepG2 cells, 72 hrs with drug, CCK-8, OD 450 nm
Protocol: as §1, §2

[7] = system: Human pancreatic cancer cell CFPAC-1; assay: CCK-8 cell proliferation assay, CFPAC-1; details: CFPAC-1 cells, 72 hrs with drug, CCK-8, OD 450 nm
Protocol: as §1, §2

IC50 [1]	IC50 [2]	IC50 [3]	IC50 [4]	IC50 [5]	IC50 [6]	IC50 [7]	Structure (SMILES)
65 nM	81 nM	70 nM	83 nM	52 nM	88 nM	59 nM	N#CN=C(NCCCCCN1CCN(C(=O)c2cc3ccccc3o2)CC1)Nc1ccncc1 [BSS-PC022, 2-cyano-1-(5-(1-(2-benzofurylformyl)piperazine-4-yl)pentyl)-3-(4-pyridinyl)guanidine]
61 nM	74 nM	71 nM	83 nM	45 nM	85 nM	42 nM	N#CN=C(NCCCCCC1CCN(C(=O)C2Cc3ccccc3O2)C1)Nc1ccncc1 (centres unmarked) [BSS-PC046, 2-cyano-1-(5-(1-(2-benzotetrahydrofurylfuryl)pyrrolidine-3-yl)pentyl)-3-(4-pyridinyl)guanidine]
53 nM	69 nM	67 nM	86 nM	39 nM	61 nM	33 nM	N#CN=C(NCCCCCN1CCN(C(=O)C2CCCN2)CC1)Nc1ccncc1 (centres unmarked) [BSS-PC010, 2-cyano-1-(5-(1-(2-pyrrolidinylformyl)piperazine-4-yl)pentyl)-3-(4-pyridinyl)guanidine]
78 nM	97 nM	31 nM	85 nM	38 nM	101 nM	31 nM	N#CN=C(NCCCCCCC1CCN(C(=O)c2cccs2)C1)Nc1cccnc1 (centres unmarked) [BSS-PC060, 2-cyano-1-(6-(1-(2-thienylformyl)pyrrolidine-3-yl)hexyl)-3-(3-pyridinyl)guanidine]
62 nM	109 nM	69 nM	83 nM	40 nM	90 nM	46 nM	N#CN=C(NCCCCCCC1CCN(C(=O)C2CCCS2)C1)Nc1cccnc1 (centres unmarked) [BSS-PC063, 2-cyano-1-(6-(1-(2-tetrahydrothienylformyl)pyrrolidine-3-yl)hexyl)-3-(3-pyridinyl)guanidine]
59 nM	89 nM	55 nM	107 nM	38 nM	101 nM	51 nM	N#CN=C(NCCCCCN1CCN(C(=O)c2ccc[nH]2)CC1)Nc1ccncc1 [BSS-PC008, 2-cyano-1-(5-(1-(2-pyrrolylformyl)piperazine-4-yl)pentyl)-3-(4-pyridinyl)guanidine]
69 nM	82 nM	42 nM	71 nM	43 nM	75 nM	52 nM	N#CN=C(NCCCCCCC1CCN(C(=O)C2CCCS2)C1)Nc1ccncc1 (centres unmarked) [BSS-PC058, 2-cyano-1-(6-(1-(2-tetrahydrothienylformyl)pyrrolidine-3-yl)hexyl)-3-(4-pyridinyl)guanidine]
61 nM	82 nM	50 nM	90 nM	41 nM	88 nM	47 nM	COc1cccc(OC)c1C(=O)N1CCC(CCCCCCNC(=NC#N)Nc2ccncc2)C1 (centres unmarked) [BSS-PC055, 2-cyano-1-(6-(1-(2,6-dimethoxybenzoyl)pyrrolidine-3-yl)hexyl)-3-(4-pyridinyl)guanidine]
33 nM	42 nM	51 nM	67 nM	17 nM	76 nM	29 nM	N#CN=C(NCCCCCC1CCN(C(=O)c2ccc[nH]2)C1)Nc1ccncc1 (centres unmarked) [BSS-PC033, 2-cyano-1-(5-(1-(2-pyrrolylformyl)pyrrolidine-3-yl)pentyl)-3-(4-pyridinyl)guanidine]
43 nM	66 nM	35 nM	95 nM	34 nM	82 nM	25 nM	N#CN=C(NCCCCCN1CCN(C(=O)c2cccs2)CC1)Nc1ccncc1 [BSS-PC004, 2-cyano-1-(5-(1-(2-thienylformyl)piperazine-4-yl)pentyl)-3-(4-pyridinyl)guanidine]
31 nM	69 nM	53 nM	60 nM	51 nM	64 nM	37 nM	N#CN=C(NCCCCCCC1CCN(C(=O)c2ccco2)C1)Nc1ccncc1 (centres unmarked) [BSS-PC057, 2-cyano-1-(6-(1-(furoyl)pyrrolidine-3-yl)hexyl)-3-(4-pyridinyl)guanidine]
49 nM	52 nM	33 nM	46 nM	30 nM	57 nM	39 nM	N#CN=C(NCCCCCCC1CCN(C(=O)c2ccccc2)C1)Nc1ccncc1 (centres unmarked) [BSS-PC054, 2-cyano-1-(6-((1-benzoyl)pyrrolidine-3-yl)hexyl)-3-(4-pyridinyl)guanidine]
40 nM	57 nM	29 nM	39 nM	24 nM	44 nM	29 nM	COc1cccc(OC)c1C(=O)N1CCC(CCCCCNC(=NC#N)Nc2cccnc2)C1 (centres unmarked) [BSS-PC052, 2-cyano-1-(5-(1-(2,6-dimethoxybenzoyl)pyrrolidine-3-yl)pentyl)-3-(3-pyridinyl)guanidine]
47 nM	81 nM	63 nM	92 nM	40 nM	69 nM	49 nM	COc1cccc(OC)c1C(=O)N1CCN(CCCCCNC(=NC#N)Nc2cccnc2)CC1 [BSS-PC027, 2-cyano-1-(5-(1-(2,6-dimethoxybenzoyl)piperazine-4-yl)pentyl)-3-(3-pyridinyl)guanidine]
43 nM	92 nM	64 nM	92 nM	41 nM	98 nM	47 nM	N#CN=C(NCCCCCCC1CCN(C(=O)c2cc3ccccc3o2)C1)Nc1ccncc1 (centres unmarked) [BSS-PC072, 2-cyano-1-(6-(1-(2-benzofurylformyl)pyrrolidine-3-yl)hexyl)-3-(4-pyridinyl)guanidine]
64 nM	91 nM	57 nM	53 nM	43 nM	82 nM	58 nM	N#CN=C(NCCCCCN1CCN(C(=O)c2sccc2F)CC1)Nc1ccncc1 [BSS-PC025, 2-cyano-1-(5-(1-(3-fluoro-2-thienylformyl)piperazine-4-yl)pentyl)-3-(4-pyridinyl)guanidine]
42 nM	55 nM	35 nM	74 nM	29 nM	57 nM	31 nM	N#CN=C(NCCCCCC1CCN(C(=O)c2[nH]ccc2F)C1)Nc1ccncc1 (centres unmarked) [BSS-PC049, 2-cyano-1-(5-(1-(3-fluoro-2-pyrrolylformyl)pyrrolidine-3-yl)pentyl)-3-(4-pyridinyl)guanidine]
72 nM	55 nM	36 nM	96 nM	29 nM	91 nM	27 nM	N#CN=C(NCCCCCN1CCN(C(=O)c2ccco2)CC1)Nc1ccncc1 [BSS-PC007, 2-cyano-1-(5-((1-furoyl)piperazine-4-yl)pentyl)-3-(4-pyridinyl)guanidine]
60 nM	95 nM	74 nM	85 nM	28 nM	77 nM	35 nM	N#CN=C(NCCCCCN1CCN(C(=O)c2cccs2)CC1)Nc1cccnc1 [BSS-PC018, 2-cyano-1-(5-(1-(2-thienylformyl)piperazine-4-yl)pentyl)-3-(3-pyridinyl)guanidine]
61 nM	49 nM	40 nM	47 nM	42 nM	52 nM	39 nM	N#CN=C(NCCCCCN1CCN(C(=O)C2CCCO2)CC1)Nc1ccncc1 (centres unmarked) [BSS-PC011]
47 nM	86 nM	43 nM	99 nM	35 nM	92 nM	46 nM	N#CN=C(NCCCCCCC1CCN(C(=O)c2ccccc2)C1)Nc1cccnc1 (centres unmarked) [BSS-PC059, 2-cyano-1-(6-((1-benzoyl)pyrrolidine-3-yl)hexyl)-3-(3-pyridinyl)guanidine]
69 nM	51 nM	45 nM	92 nM	29 nM	83 nM	36 nM	N#CN=C(NCCCCCC1CCN(C(=O)c2cccs2)C1)Nc1cccnc1 (centres unmarked) [BSS-PC043, 2-cyano-1-(5-(1-(2-thienylformyl)pyrrolidine-3-yl)pentyl)-3-(3-pyridinyl)guanidine]
37 nM	49 nM	42 nM	94 nM	23 nM	109 nM	27 nM	COc1cccc(OC)c1C(=O)N1CCC(CCCCCNC(=NC#N)Nc2ccncc2)C1 (centres unmarked) [BSS-PC031, 2-cyano-1-(5-(1-(2,6-dimethoxybenzoyl)pyrrolidine-3-yl)pentyl)-3-(4-pyridinyl)guanidine]
